Results on 28 compounds are retold here after patent US7435837B2, “Dihydrobenzofuranyl alkanamine derivatives and methods for using same” (Wyeth, priority 2003, dated 2008).

One assay has as its target T1, human 5-HT2C receptor (Homo sapiens, UniProt P28335).
T1 sequence (P28335 33-458): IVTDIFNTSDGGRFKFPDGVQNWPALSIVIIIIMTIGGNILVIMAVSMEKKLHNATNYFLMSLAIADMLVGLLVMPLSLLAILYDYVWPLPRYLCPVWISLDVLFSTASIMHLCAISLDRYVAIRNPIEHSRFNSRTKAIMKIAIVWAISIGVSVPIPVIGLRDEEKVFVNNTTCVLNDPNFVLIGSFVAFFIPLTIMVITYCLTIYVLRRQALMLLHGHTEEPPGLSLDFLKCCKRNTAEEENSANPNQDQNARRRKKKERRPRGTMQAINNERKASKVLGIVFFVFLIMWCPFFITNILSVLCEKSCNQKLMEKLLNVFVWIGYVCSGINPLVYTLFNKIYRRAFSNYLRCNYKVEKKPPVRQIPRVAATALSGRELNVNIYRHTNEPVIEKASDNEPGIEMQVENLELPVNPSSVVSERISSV
Kind of assay: 5-HT2C receptor-stimulated calcium mobilization (FLIPR) in CHO cells.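 As to all read-outs here: Fluo-3-AM fluorescence read on FLIPR every 1 s, agonist added after 10 baseline reads, response taken as peak minus lowest raw fluorescence count.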 The assay is classed as cell-based. The conditions noted are these: for pEC50: calcium mobilization, CHO cells stably expressing human 5-HT2C, read-out: 5-HT2C Function EC50; for 5-HT2C Function Emax (%) / Emax: percentage of the response observed with a maximally effective concentration of 5-HT; for Emax: CHO, read-out: 5-HT2C Function Emax (%). Background: Calcium assays in cells follow changes in intracellular calcium, usually with a dye or a luminescent sensor.

For assay [1], the target named is T2, human 5-hydroxytryptamine-2C (h5-HT2C) receptor (Homo sapiens, UniProt P28335).
T2 construct: expressed in transfected cells; host or cells: CHO (Chinese Hamster Ovary) cells; membranes
T2 sequence (P28335 33-458): T1 sequence (P28335 33-458)
Kind of assay: [125I]DOI binding to membranes of CHO cells expressing the human 5-HT2C receptor. The conditions noted are these: [125I]DOI radioligand, CHO cell membranes, room temperature 60 min; read-out: 5-HT2C Affinity Ki.

The structures appear in SMILES notation. pEC50, pKi: −log10 of the molar value.

`Cc1ccccc1-c1cccc2c1OC(CN)C2` (single isomer, unassigned; (-)) [Example 49, (−)-1-[7-(2-methylphenyl)-2,3-dihydro-1-benzofuran-2-yl]methanamine]: on human 5-HT2C receptor, the pEC50 (commonly −log10 of the EC50, conventionally taken in molar units) was 6.88 and the “5-HT2C Function Emax (%)” value was 80%. Further, the pKi (commonly −log10 of the Ki, conventionally taken in molar units) in assay [1] is 8.00.

Take `N#Cc1cc2c(c(-c3ccccc3Cl)c1)OC(CN)C2` (racemic) [Example 312, (±)-2-(aminomethyl)-7-(2-chlorophenyl)-2,3-dihydro-1-benzofuran-5-carbonitrile]: at human 5-HT2C receptor, the Emax – broadly, the size of the effect at its maximum, as opposed to the concentration needed – is 90% and the pEC50 was 7.60. In addition, the negative-log Ki (pKi) in assay [1] is 7.82.

Consider `NCC1Cc2cc(F)cc(-c3ccccc3Cl)c2O1` (single isomer, unassigned; (-)) [Example 102, (−)-1-[7-(2-chlorophenyl)-5-fluoro-2,3-dihydro-1-benzofuran-2-yl]methanamine], for which, at human 5-HT2C receptor, the pEC50 was 7.49 and the “5-HT2C Function Emax (%)” value worked out at 65%. Also, the pKi in assay [1] is 8.10.

`NCC1Cc2cccc(-c3cccc(Cl)c3)c2O1` (single isomer, unassigned; (+)) [Example 66, (+)-1-[7-(3-chlorophenyl)-2,3-dihydro-1-benzofuran-2-yl]methanamine]: on human 5-HT2C receptor, the pEC50 was 6.60 and the “5-HT2C Function Emax (%)” value worked out at 100%. For the same compound, the negative-log Ki (pKi) in assay [1] is 8.30.

Regarding `NCC1Cc2cccc(C3CCCC3)c2O1` (racemic) [Example 8, (±)-(7-cyclopentyl-2,3-dihydro-1-benzofuran-2-yl)methylamine], on human 5-HT2C receptor, the Emax was 85% and the negative-log EC50 (pEC50) is 6.73. Moreover, the pKi in assay [1] was 8.05.

As to `CNCC1Cc2cccc(-c3ccccc3C)c2O1` (racemic) [Example 406, (±)-[(N-methyl-1-[7-(2-methylphenyl)-2,3-dihydro-1-benzofuran-2-yl]methanamine], on human 5-HT2C receptor, the maximal response (Emax) came out at 100% and the pEC50 was 8.05. For the same compound, the pKi in assay [1] is 9.29.

`Cc1cc(Cl)ccc1-c1cccc2c1OC(CN)C2` (racemic) [Example 167, (±)-{[7-(4-chloro-2-methylphenyl)-2,3-dihydro-1-benzofuran-2-yl]methyl}amine]: at human 5-HT2C receptor, the Emax was found to be 90% and the pEC50 is 7.68. For the same compound, in assay [1], the negative logarithm of the Ki (pKi) is 8.51.

With `Cc1ccccc1-c1cc(F)cc2c1OC(CN)C2` (racemic) [Example 104, (±)-1-[5-fluoro-7-(2-methylphenyl)-2,3-dihydro-1-benzofuran-2-yl]methanamine], at human 5-HT2C receptor, the Emax was found to be 100% and the pEC50 is 6.62. In addition, the negative-log Ki (pKi) in assay [1] was 9.00.

As to `NCC1Cc2cccc(-c3ccccc3)c2O1` (single isomer, unassigned; (-)) [Example 38, (−)-1-(7-phenyl-2,3-dihydro-1-benzofuran-2-yl)methanamine], on human 5-HT2C receptor, the Emax was 100% and the pEC50 is 6.27. Moreover, in assay [1], the pKi was 7.25.

As for `Cc1cc2c(c(-c3ccc(Cl)cc3)c1)OC(CN)C2` (racemic) [Example 292, (±)-{[7-(4-chlorophenyl)-5-methyl-2,3-dihydro-1-benzofuran-2-yl]methyl}amine], at human 5-HT2C receptor, the Emax came to 100% and the pEC50 is 7.18. In assay [1], the pKi was 8.31.

Turning to `NCC1Cc2cccc(-c3ccccc3C(F)(F)F)c2O1` (racemic) [Example 53, (±)-1-{7-[2-(trifluoromethyl)phenyl]-2,3-dihydro-1-benzofuran-2-yl}methanamine], on human 5-HT2C receptor, the Emax came to 80% and the pEC50 was 7.35. Also, the pKi in assay [1] was 9.00.

As to `NCC1Cc2cc(Cl)cc(-c3cc(F)ccc3F)c2O1` (racemic) [Example 255, (±)-{[5-chloro-7-(2,5-difluorophenyl)-2,3-dihydro-1-benzofuran-2-yl]methyl}amine], at human 5-HT2C receptor, the Emax worked out at 90% and the pEC50 is 7.10. Moreover, in assay [1], the pKi was 8.30.

Take `CNCC1Cc2cc(F)cc(-c3cc(C)ccc3OC)c2O1` (racemic) [Example 457, (±)-{[5-fluoro-7-(2-methoxy-5-methylphenyl)-2,3-dihydro-1-benzofuran-2-yl]methyl}methylamine]: at human 5-HT2C receptor, the Emax worked out at 50% and the pEC50 was 6.13. Further, the pKi in assay [1] was 7.42.

With `Cc1ccccc1-c1cc(Cl)cc2c1OC(CN)C2` (single isomer, unassigned; (+)) [Example 96, (+)-1-[5-chloro-7-(2-methylphenyl)-2,3-dihydro-1-benzofuran-2-yl]methanamine], at human 5-HT2C receptor, the pEC50 was 7.57 and the “5-HT2C Function Emax (%)” value was found to be 100%. Further, the pKi in assay [1] is 9.00.

For `COc1cccc(-c2cccc3c2OC(CN)C3)c1OC` (racemic) [Example 155, (±)-{[7-(2,3-dimethoxyphenyl)-2,3-dihydro-1-benzofuran-2-yl]methyl}amine], on human 5-HT2C receptor, the Emax is 90% and the pEC50 is 7.37. In addition, the pKi in assay [1] was 8.05.

For the compound `CNCC1Cc2cccc(-c3cccc(C)c3)c2O1` (racemic) [Example 414, (±)-[(N-methyl-1-[7-(3-methylphenyl)-2,3-dihydro-1-benzofuran-2-yl]methanamine], on human 5-HT2C receptor, the Emax stood at 60% and the negative-log EC50 (pEC50) is 6.11. For the same compound, in assay [1], the pKi was 8.47.

Take `Cc1cc2c(c(-c3ccc(Cl)cc3Cl)c1)OC(CN)C2` (single isomer, unassigned; (+)) [Example 299, (+)-{[7-(2,4-dichlorophenyl)-5-methyl-2,3-dihydro-1-benzofuran-2-yl]methyl}amine]: on human 5-HT2C receptor, the pEC50 is 10.00 and the “5-HT2C Function Emax (%)” value is 100%. Moreover, the negative-log Ki (pKi) in assay [1] is 9.72.

As for `Cc1ccccc1-c1cc(F)cc2c1OC(CN)C2` (single isomer, unassigned; (+)) [Example 105, (+)-1-[5-fluoro-7-(2-methylphenyl)-2,3-dihydro-1-benzofuran-2-yl]methanamine], on human 5-HT2C receptor, the pEC50 is 8.40 and the “5-HT2C Function Emax (%)” value amounted to 95%. Also, the pKi in assay [1] is 9.00.

Regarding `Cc1cc2c(c(-c3ccccc3Cl)c1)OC(CN)C2` (racemic) [Example 286, (±)-{[7-(2-chlorophenyl)-5-methyl-2,3-dihydro-1-benzofuran-2-yl]methyl}amine], on human 5-HT2C receptor, the Emax worked out at 100% and the pEC50 was 8.22. Moreover, the pKi in assay [1] is 9.12.

For `COc1cc2c(c(-c3cc(Cl)ccc3OC)c1)OC(CN)C2` (racemic) [Example 372, (±)-{[7-(5-chloro-2-methoxyphenyl)-5-methoxy-2,3-dihydro-1-benzofuran-2-yl]methyl}amine], on human 5-HT2C receptor, the maximal response (Emax) turned out to be 80% and the pEC50 was 6.65. Moreover, in assay [1], the pKi is 7.64.

As for `Cc1cccc(-c2cc(C)cc3c2OC(CN)C3)c1` (racemic) [Example 289, (±)-{[7-(3-methylphenyl)-5-methyl-2,3-dihydro-1-benzofuran-2-yl]methyl}amine], at human 5-HT2C receptor, the Emax stood at 100% and the pEC50 was 7.36. Besides, in assay [1], the pKi was 9.00.

On to `CNCC1Cc2cc(C)cc(-c3cccc(Cl)c3)c2O1` (racemic) [Example 479, (±)-{[7-(3-chlorophenyl)-5-methyl-2,3-dihydro-1-benzofuran-2-yl]methyl}methylamine], for which, at human 5-HT2C receptor, the Emax amounted to 80% and the pEC50 is 7.15. In addition, the pKi in assay [1] is 9.30.

Consider `CCNCC1Cc2cccc(-c3c(Cl)cccc3Cl)c2O1` (racemic) [Example 390, (±)-N-{[7-(2,6-dichlorophenyl)-2,3-dihydro-1-benzofuran-2-yl]methyl}ethanamine], for which, on human 5-HT2C receptor, the Emax is 80% and the pEC50 is 8.70. In assay [1], the pKi is 8.74.

Take `NCC1Cc2cccc(-c3c(F)cccc3F)c2O1` (racemic) [Example 139, (±)-1-[7-(2,6-difluorophenyl)-2,3-dihydro-1-benzofuran-2-yl]methanamine]: on human 5-HT2C receptor, the Emax amounted to 90% and the pEC50 was 8.22. Moreover, the negative logarithm of the Ki (pKi) in assay [1] was 8.60.

For `Cc1cccc(C)c1-c1cc(F)cc2c1OC(CN)C2` (single isomer, unassigned; (-)) [Example 229, (−)-{[7-(2,6-dimethylphenyl)-5-fluoro-2,3-dihydro-1-benzofuran-2-yl]methyl}amine], on human 5-HT2C receptor, the pEC50 is 8.22 and the “5-HT2C Function Emax (%)” value amounted to 100%. The pKi in assay [1] is 9.40.

With `COc1cccc(-c2cc(F)cc3c2OC(CN)C3)c1OC` (racemic) [Example 212, (±)-{[7-(2,3-dimethoxyphenyl)-5-fluoro-2,3-dihydro-1-benzofuran-2-yl]methyl}amine], at human 5-HT2C receptor, the maximum response (Emax) was 90% and the pEC50 was 7.96. In assay [1], the pKi is 8.62.

Consider `COc1ccc(C)c(-c2cc(F)cc3c2OC(CN)C3)c1` (racemic) [Example 224, (±)-{[5-fluoro-7-(5-methoxy-2-methylphenyl)-2,3-dihydro-1-benzofuran-2-yl]methyl}amine], for which, on human 5-HT2C receptor, the Emax turned out to be 70% and the pEC50 is 6.34. Besides, the pKi in assay [1] is 7.74.

Turning to `Cc1ccccc1-c1cc(C2CCCC2)cc2c1OC(CN)C2` (racemic) [Example 309, (±)-{[5-cyclopentyl-7-(2-methylphenyl)-2,3-dihydro-1-benzofuran-2-yl]methyl}amine], on human 5-HT2C receptor, the maximal effect (Emax) was determined as 90% and the negative-log EC50 (pEC50) was 6.97. Also, the pKi in assay [1] is 8.10.
